Legend:
[1] = biological target: T1, cloned human CRF-R1 receptors (Homo sapiens, UniProt P34998); experiment: CRF-R1 receptor binding assay (inhibition of 125I-ovine-CRF binding to cell membranes); conditions: membranes of 293EBNA cells transfected with hCRFR1, class d = reported as percent inhibition at 10 μM, figures not given, read-out: activity (Ki class in the CRF assays)
T1 construct: the coding region was amplifies by PCR from start to stop codons; expressed in transfected cells; membranes
T1 sequence (P34998 24-415): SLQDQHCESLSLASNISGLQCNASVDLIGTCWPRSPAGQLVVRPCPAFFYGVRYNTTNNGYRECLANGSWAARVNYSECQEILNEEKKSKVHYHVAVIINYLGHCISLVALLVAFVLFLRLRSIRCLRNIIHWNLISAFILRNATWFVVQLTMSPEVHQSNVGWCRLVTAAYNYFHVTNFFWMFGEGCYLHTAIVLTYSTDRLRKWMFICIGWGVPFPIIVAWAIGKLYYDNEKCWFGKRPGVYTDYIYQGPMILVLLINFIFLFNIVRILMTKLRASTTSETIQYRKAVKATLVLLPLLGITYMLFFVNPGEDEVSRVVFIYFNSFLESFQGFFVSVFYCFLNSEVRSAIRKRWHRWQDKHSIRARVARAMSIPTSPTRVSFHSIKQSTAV
Summary of the method: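 Membranes from hygromycin-selected 293EBNA cells expressing human CRF-R1 were incubated for 2 h at room temperature with 150 pM 125I-ovine-CRF and test drug at 10^−10–10^−5 M final, in pH 7.0 HEPES buffer with MgCl2 and EGTA. Bound ligand was collected by filtration and gamma-counted, and Ki values were derived by iterative curve fitting.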

Ki [1]: 100 to 500 nM
melting point: 110 to 112 °C
SMILES: CCc1ccc(S(=O)(=O)c2ccc(C)nc2Nc2ccc(OC)cc2Cl)cc1 [Example 69, (2-Chloro-4-methoxyphenyl)-[3-(4-ethylbenzenesulfonyl)-6-methylpyridin-2-yl]-amine]
